Results as given in patent publication US20230219898A1, “COMPOUNDS AND METHODS FOR BLOCKING APOPTOSIS AND INDUCING AUTOPHAGY” (President and Fellows of Harvard College, priority 2020, published 2023).

Legend:
mice injected with mTNFα = assay: In vivo delivery of TNFα, systemic inflammation model; details: Apt-1 20 mg/kg i.p. 30 min before mTNFα 9.5 μg i.v.
Description: Control mice (n=9) received an equal amount of vehicle before mTNFα challenge. Mean s.e.m. Two-way ANOVA. ***P=0.0007.
WT mice (n=10, male, 8 weeks of age) were injected intravenously via the tail vein with mTNFα (9.5 μg/mouse) after an intraperitoneal injection of Apt-1 (20 mg/kg) 30 min before. Control mice (n=9) received an equal amount of vehicle 30 min before mTNFα challenge. Kaplan Meier survival curve was determined. 25. Vps34 lipid kinase assay HEK293T cells were transfected with Flag-Beclin 1 for 18 h and then treated with ICCB-19, ICCB-19i, Apt-1 (10 μM) for another 6 h. Flag-Beclin 1 was immunoprecipitated by anti-Flag to isolate Beclin 1/Vps34 complex. Immunoprecipitated beads were added with sonicated phosphatidylinositol (1 μl of 5 mg) and ATP (1 μl of 10 mM) in 30 μl reaction buffer (40 mM Tris (pH 7.5), 20 mM MgCl2, 1 mg/ml BSA) for 30 min at room temperature. Wortmannin (10 μM) was used as a control and added into the reaction to inhibit Vps34. The conversion of ATP into ADP levels was measured by an ADP-Glo Kinase Assay Kit (Promega) according to the manufacturer's instructions.

[1] = system: TRADD-N mutants (Y16A, F18A, I72A, R119A, G121A); assay: Thermal shift assay with His-TRADD-N mutants; type: binding, human
Description: To determine stability, purified proteins were made to a final concentration of […]. SYPRO Orange dye was added to the protein to make a final concentration of 2×. Compounds were added in the mix with a final concentration of 250 μM or as indicated and incubated at 4C for 1 h. The experiments were performed in 384-well plates specific for real-time PCR instrument with a total volume of 20 μl/well. The assay plate was covered with a sheet of optically clear adhesive to seal each well. The assay plate was centrifuged at 800×g for 2 min at 25C to collect solutions in the bottom of the well and remove bubbles. The assay plate was placed into the Applied Biosystems QuantStudio 6 Real-Time PCR System. The reaction was run from 25C, ramping up in increments of 0.05° C./s to a final temperature of 95C with fluorescence detection throughout the experiment to generate a dataset. Melting temperature of the protein (Tm) was determined by performing non-linear fitting of the dataset to a Boltzmann Sigmoidal curve in GraphPad Prism with the following equation: Y=Bottom+(Top-Bottom)/[1+exp(Tm-X/Slope)], where Y=fluorescence emission in arbitrary units; X=temperature; Bottom=baseline fluorescence at low temperature; Top=maximal fluorescence at top of the dataset; Slope=describes the steepness of the curve, with larger values denoting shallower curves.

CN1CCN=C1SC(C(=O)NC1CCCCCC1)c1ccccc1 (centres unmarked) [Compound 30]
survival following intravenously-delivered TNFα (mice injected with mTNFα): increased survival | binding with recombinant TRADD-N mutants [1]: reduced relative to WT
